Key:
[1] = cited from earlier work
[2] = target: T1, NR1/NR2B ionotropic receptor (Homo sapiens, UniProt Q05586+Q13224); assay: ScreenPatch IonWorks Barracuda electrophysiology assay on NR1/NR2B; format: cell-based; settings: for relative inhibition of NR2B: comparison of enantiomers and racemate, words
T1 construct: expressed in transfected cells
Procedure: (§1) Test articles were evaluated for functional effects on ion channels.
(§2) The final DMSO concentration was 0.6%.
(§3) Adjusted to pH 7.2 with CsOH.

tumor = assay: mouse cancer models, general anti-tumor activity; format: in vivo; settings: alone
[3] = system: B16-OVA cells / B3Z cells; assay: B3Z activation assay, recognition of OVA model tumor antigen on B16-OVA cells; format: cell-based; settings: B16-OVA cells treated (100 μM, 24 hours) then B3Z co-culture 24 h; read-out: increase in recognition of model tumor antigen by B3Z cells
Procedure: B16-OVA cells are seeded into a 96-well plate and treated with 100 μM […], […] or racemic rimantadine for 24 hours, prior to addition of B3Z cells. After 24 hours of co-culture, medium is removed and 100 μl of lysis buffer [0.155 mM chlorophenol red β-D-galactopyranoside (CPRG) (Roche), 0.125% Nonidet P-40 Alternative (EMDCalbiochem), and 9 mM MgCl2 (Sigma) in PBS] are added. After incubation for 4 hours at 37 °C, the absorbance at 570 nm is determined on a TECAN infinite M200 microplate reader.

AT-84-E7 = assay: BrdU incorporation / cell proliferation assay in AT-84-E7; format: cell-based; settings: for G0/G1 cell cycle arrest / S phase: BrdU, alone
Procedure: (§4) [LEFT OUT]. Louis, MO) (27).
(§5) Cell cycle progression was analyzed on the basis of BrdU incorporation following […] cell staining with BrdU-APC and 7-AAD using BD Pharmingen BrdU Flow Kit. (BD, Franklin Lakes, NJ) according to the manufacture's protocol. Cells are analyzed using flow cytometry. Cell proliferation is assessed by using MTT [3-(4,5-dimethylthiazol-2-yl)-2,5-diphenyltetrazolium bromide]. First, cells are seeded in 96-well plate and cultured for 2-3 days. Next, culture media is replaced with fresh media containing 0.5 mg/ml of MTT (Sigma) and the plates are incubated for 4 hours at 37 °C. Then, purple formazan crystals are dissolved in lysis buffer (4 mM HCl and 0.1% NP-40 in isopropanol) and the absorbance is recorded on a TECAN infiniteM200 microplate reader (Tecan, Männedorf, Switzerland) at a wavelength of 570 nm with absorbance at 650 nm as reference.

B16-OVA = assay: BrdU incorporation / cell proliferation assay in B16-OVA; format: cell-based; settings: for G0/G1 cell cycle arrest / S phase: BrdU, alone
Procedure: as §4, §5

Stathmin = assay: RTqPCR gene expression of Stathmin; format: cell-based
Procedure: (§6) Total RNA is extracted using TRIzol Reagent (Invitrogen) and reverse transcribed with qScript cDNA Synthesis Kit (Quanta BioSciences, Beverly, MA) according to the manufacturer's instructions. Quantitative PCR analysis is conducted by using KAPA SYBR […] FAST (KAPA Biosystems, Wilmington, MA) on the 7900HT Fast Real-Time PCR System (Applied Biosystems, Foster City, CA).

Tau = assay: RTqPCR gene expression of Tau; format: cell-based
Procedure: as §6

[4] = system: murine and human cell lines engineered to express HPV16 E5; assay: cell cycle arrest in cell lines engineered to express HPV16 E5; format: cell-based; settings: cells expressing HPV16 E5
Procedure: as §5

[5] = system: glutamate, GABA, dopamine receptors; assay: in vivo SPECT receptor binding selectivity (Examples 4 and 5); parameters: species or system mouse
[6] = in vivo CNS adverse effects / toxicity (Examples 4 and 5); parameters: species or system mouse
M2 transmembrane channel = settings: cited from earlier work
B16-OVA tumor = assay: mouse tumor model B16-OVA, IP treatment; settings: in combination with anti-PDL1 immunotherapy; B16-OVA tumors
MHC class I = MHC class I surface expression on RAW264.7
MHC class II = MHC class II surface expression on RAW264.7
MHC I = settings: E5-positive AT-84-E7
MHC = assay: surface expression of MHC (flow cytometry), multiple cell lines
CAL-27 cells = assay: CAL-27 in vitro MTT proliferation assay; format: cell-based, human; settings: 0, 100, 250 or 500 μM, 24 or 48 hours
Procedure: On day 1, CAL-27 cells were seeded in a 96-well plate (2-4×10^3 cells/well, medium 100 μl/well) and left overnight to allow the cells to attach to the plate. On day 2, varying concentrations of rimantadine (0 μM, 100 μM, 250 μM, or 500 μM) were added to the cells and allowed to incubate for 24 hours or 48 hours. On either day 3 or 4, the culture media was aspirated, and 100 μl/well of MTT solution (comprising an MTT concentration of 0.5 mg/ml; formed by dilution of thiazolyl blue tetrazolium bromide solution (SIGMA, Cat #M2128) with stock solution (5 mg/ml in PBS (−20 °C)) was added to the culture media. The cells were incubated in a CO2 incubator at 37 °C for 3 hours, and the MTT solution was aspirated. 100 μl/well of DMSO was then added and the cells were incubated for about 5 minutes. A OD570 nm (Ref 650 nm) was then read. Results of the experiment are shown in FIG. 2.

[7] = target: T2, NR1/NR2A ionotropic receptor (Homo sapiens, UniProt Q05586+Q12879); assay: ScreenPatch IonWorks Barracuda electrophysiology assay on NR1/NR2A; format: cell-based
T2 construct: expressed in transfected cells
Procedure: as §1, §2, §3

D2/3 dopamine receptor = settings: radioligand; cited from earlier work
CAL-27 = assay: BrdU incorporation and proliferation assays in CAL-27; format: cell-based, human; settings: alone
Procedure: as §4, §5

CAL-33 = assay: BrdU incorporation and proliferation assays in CAL-33; format: cell-based, human; settings: alone
Procedure: as §4, §5

SCC-47 = assay: BrdU incorporation and proliferation assays in SCC-47; format: cell-based, human; settings: alone
Procedure: as §4, §5

[8] = agonist format, first application, data not shown

T1 sequence (Q13224 27-1484, other chains not shown): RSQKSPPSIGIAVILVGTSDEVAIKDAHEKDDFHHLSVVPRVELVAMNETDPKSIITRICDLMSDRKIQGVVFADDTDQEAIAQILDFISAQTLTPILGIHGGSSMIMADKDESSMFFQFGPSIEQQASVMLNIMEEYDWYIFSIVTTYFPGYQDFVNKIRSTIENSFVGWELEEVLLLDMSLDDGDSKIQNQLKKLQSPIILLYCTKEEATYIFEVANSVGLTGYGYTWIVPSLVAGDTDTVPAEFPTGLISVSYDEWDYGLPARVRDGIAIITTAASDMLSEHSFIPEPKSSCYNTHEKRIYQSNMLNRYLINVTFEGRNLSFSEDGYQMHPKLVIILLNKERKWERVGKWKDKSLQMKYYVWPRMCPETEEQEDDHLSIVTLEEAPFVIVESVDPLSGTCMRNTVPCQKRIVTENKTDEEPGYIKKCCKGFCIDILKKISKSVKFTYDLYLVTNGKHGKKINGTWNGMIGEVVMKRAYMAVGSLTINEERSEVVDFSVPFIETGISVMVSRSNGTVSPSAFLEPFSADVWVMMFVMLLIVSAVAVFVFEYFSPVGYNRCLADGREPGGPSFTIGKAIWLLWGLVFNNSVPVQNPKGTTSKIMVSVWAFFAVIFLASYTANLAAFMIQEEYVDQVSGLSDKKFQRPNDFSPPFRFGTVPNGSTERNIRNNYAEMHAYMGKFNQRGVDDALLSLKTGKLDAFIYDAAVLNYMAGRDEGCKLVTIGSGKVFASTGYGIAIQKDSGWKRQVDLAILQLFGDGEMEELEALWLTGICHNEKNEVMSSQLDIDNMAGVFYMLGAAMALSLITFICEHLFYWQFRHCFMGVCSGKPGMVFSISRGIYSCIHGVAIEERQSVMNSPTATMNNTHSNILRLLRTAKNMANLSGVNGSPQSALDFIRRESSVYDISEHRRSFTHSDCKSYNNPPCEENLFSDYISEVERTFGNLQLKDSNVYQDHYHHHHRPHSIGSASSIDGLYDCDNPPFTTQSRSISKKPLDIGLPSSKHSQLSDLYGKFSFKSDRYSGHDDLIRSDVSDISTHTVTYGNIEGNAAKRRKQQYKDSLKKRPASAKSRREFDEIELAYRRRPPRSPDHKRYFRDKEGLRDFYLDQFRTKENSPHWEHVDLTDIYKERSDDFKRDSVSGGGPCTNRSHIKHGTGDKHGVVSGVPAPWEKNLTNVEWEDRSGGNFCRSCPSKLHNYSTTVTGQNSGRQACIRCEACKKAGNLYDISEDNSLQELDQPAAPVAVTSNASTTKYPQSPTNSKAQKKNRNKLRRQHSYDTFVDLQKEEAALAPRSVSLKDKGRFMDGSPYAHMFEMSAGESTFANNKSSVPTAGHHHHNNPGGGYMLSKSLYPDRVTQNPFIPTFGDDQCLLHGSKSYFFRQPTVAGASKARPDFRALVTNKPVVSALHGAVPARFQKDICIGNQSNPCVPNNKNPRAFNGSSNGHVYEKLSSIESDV
T2 sequence (Q12879 23-1464, other chains not shown): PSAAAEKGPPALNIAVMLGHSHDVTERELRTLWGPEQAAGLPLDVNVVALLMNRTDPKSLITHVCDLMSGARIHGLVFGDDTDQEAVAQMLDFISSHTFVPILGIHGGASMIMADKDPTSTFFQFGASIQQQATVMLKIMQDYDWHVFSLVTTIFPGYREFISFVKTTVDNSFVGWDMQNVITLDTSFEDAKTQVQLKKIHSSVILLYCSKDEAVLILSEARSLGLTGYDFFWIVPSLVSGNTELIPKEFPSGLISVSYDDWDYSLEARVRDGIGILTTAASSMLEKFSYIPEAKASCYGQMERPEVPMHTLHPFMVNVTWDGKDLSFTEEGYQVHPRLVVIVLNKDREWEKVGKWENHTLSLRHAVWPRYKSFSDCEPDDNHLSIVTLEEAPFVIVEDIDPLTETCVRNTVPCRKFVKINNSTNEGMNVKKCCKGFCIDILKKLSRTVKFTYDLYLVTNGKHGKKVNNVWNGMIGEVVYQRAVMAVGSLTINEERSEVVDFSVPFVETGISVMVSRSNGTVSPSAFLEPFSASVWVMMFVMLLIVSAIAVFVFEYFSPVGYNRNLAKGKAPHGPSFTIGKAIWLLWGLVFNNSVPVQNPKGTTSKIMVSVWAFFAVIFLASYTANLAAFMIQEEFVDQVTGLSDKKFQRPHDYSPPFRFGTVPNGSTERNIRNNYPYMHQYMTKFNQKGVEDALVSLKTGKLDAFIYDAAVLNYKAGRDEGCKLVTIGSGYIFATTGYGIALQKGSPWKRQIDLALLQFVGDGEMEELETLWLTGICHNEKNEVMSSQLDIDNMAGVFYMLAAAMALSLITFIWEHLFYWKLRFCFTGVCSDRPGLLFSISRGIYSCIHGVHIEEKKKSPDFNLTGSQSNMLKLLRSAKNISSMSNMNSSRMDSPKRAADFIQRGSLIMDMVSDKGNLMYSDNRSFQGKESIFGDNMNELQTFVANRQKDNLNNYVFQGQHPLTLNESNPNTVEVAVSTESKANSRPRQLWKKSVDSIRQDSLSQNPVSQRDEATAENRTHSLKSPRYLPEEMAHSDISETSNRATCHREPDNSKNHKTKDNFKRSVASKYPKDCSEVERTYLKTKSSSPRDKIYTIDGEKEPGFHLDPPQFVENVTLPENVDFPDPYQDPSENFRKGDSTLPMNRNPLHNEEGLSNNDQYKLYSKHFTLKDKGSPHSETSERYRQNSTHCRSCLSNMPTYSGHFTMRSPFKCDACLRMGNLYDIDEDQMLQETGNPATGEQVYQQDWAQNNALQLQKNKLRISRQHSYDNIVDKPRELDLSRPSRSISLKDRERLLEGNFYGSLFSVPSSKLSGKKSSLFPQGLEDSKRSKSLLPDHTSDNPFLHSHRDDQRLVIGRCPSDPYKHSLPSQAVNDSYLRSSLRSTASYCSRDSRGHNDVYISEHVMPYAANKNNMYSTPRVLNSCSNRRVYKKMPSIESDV

Row | SMILES | relative inhibition of NR2B [2] | anti-tumor activity (tumor) | fold induction at 100 µM [3] | cell proliferation (AT-84-E7) | G0/G1 cell cycle arrest (AT-84-E7) | S phase (AT-84-E7) | cell proliferation (B16-OVA) | G0/G1 cell cycle arrest (B16-OVA) | S phase (B16-OVA) | Stathmin gene expression (Stathmin) | Tau gene expression (Tau) | cell cycle arrest [4] | survival (B16-OVA tumor) | MHC class I surface expression (MHC class I) | MHC class II surface expression (MHC class II) | cell surface expression of MHC I (MHC I) | surface expression of MHC (MHC) | further results
1 | CC(N)C12CC3CC(CC(C3)C1)C2 (racemic) [racemic rimantadine] | – | – | – | – | – | – | – | – | – | – | – | – | – | – | – | – | – | side effects ([1]; currently prescribed doses): central nervous system (CNS) side effects, sleep side effects, gastrointestinal side effects, and atropinic side effects; most commonly cited toxicities for discontinuation of treatment ([1]; in vivo): Anxiety and insomnia
2 | C[C@@H](N)C12CC3CC(CC(C3)C1)C2 [2-R rimantadine] | greater ability to inhibit NR2B as compared to racemic rimantadine | significantly decreased tumor growth | 3 | Suppression of cell proliferation | significant increases in G0/G1 cell cycle arrest | significant decreases in S phase | Suppression of cell proliferation | significant increases in G0/G1 cell cycle arrest | significant decreases in S phase | significant decreases | Decreases in microtubule associated molecule Tau | induce cell cycle arrest | significant improvement in survival | significant increases | significant increases | restored | Significant increases in surface expression of MHC | binding selectivity or agonistic behavior to glutamate, GABA, dopamine receptors ([5]; Example 4, 10-20 mg/kg IP daily 7 days): significantly higher binding selectivity or agonistic behavior; incidence of central nervous system adverse effects ([6]; Example 4): higher incidence of central nervous system adverse effects; binding affinity for M2 channel pore (M2 transmembrane channel; one study, R- vs S-enantiomer): greater affinity than the S-enantiomer
3 | C[C@H](N)C12CC3CC(CC(C3)C1)C2 [2-S rimantadine] | to a lesser degree as compared to 2-R rimantadine and racemic rimantadine | significantly decreased tumor growth | 3 | Suppression of cell proliferation | significant increases in G0/G1 cell cycle arrest | significant decreases in S phase | Suppression of cell proliferation | significant increases in G0/G1 cell cycle arrest | significant decreases in S phase | significant decreases | Decreases in microtubule associated molecule Tau | induce cell cycle arrest | significant improvement in survival | significant increases | significant increases | restored | Significant increases in surface expression of MHC | binding selectivity or agonistic behavior to glutamate, GABA, dopamine receptors ([5]; Example 5, 10-20 mg/kg IP daily 7 days): significantly higher binding selectivity or agonistic behavior; toxicity compared to 2-R rimantadine ([6]; Example 4, taken together with Example 2): significantly less toxic; incidence of central nervous system adverse effects ([6]; Example 5): higher incidence of central nervous system adverse effects; toxicity compared to 2-R rimantadine ([6]; Example 5, taken together with Example 2): significantly less toxic; cancer cell proliferation compared to R-rimantadine or racemic rimantadine (CAL-27 cells): enhanced or equivalent cancer cell proliferation as compared to R-rimantadine or racemic rimantadine
4 | NC12CC3CC(CC(C3)C1)C2 [Amantadine] | – | – | – | – | – | – | – | – | – | – | – | – | – | – | – | – | – | agonist effect: activation of NMDA receptors [7, 8]: Neither test articles nor amantadine had produced significant activation of NMDA receptors; shift in potency for steady state vs peak currents ([7]; suggests open channel block mechanism of inhibition): Leftward shift in amantadine potency for steady state currents measurements; agonist effect: activation of NMDA receptors [2, 8]: Neither test articles nor amantadine had produced significant activation of NMDA receptors
5 | CCN1CCC[C@H]1CNC(=O)c1c(OC)ccc(I)c1O [IBZM] | – | – | – | – | – | – | – | – | – | – | – | – | – | – | – | – | – | affinity for the D2/3 dopamine receptor (D2/3 dopamine receptor): high affinity
6 | CC(N)C12CC3CC(CC(C3)C1)C2 (stereo not shown) [rimantadine] | – | – | – | – | – | – | – | – | – | – | – | – | – | – | – | – | – | cell cycle arrest (CAL-27): Significant cell cycle arrest; proliferation (CAL-27): decreased proliferation; cell cycle arrest (CAL-33): Significant cell cycle arrest; proliferation (CAL-33): decreased proliferation; cell cycle arrest (SCC-47): Significant cell cycle arrest; proliferation (SCC-47): decreased proliferation; inhibition of influenza activity (M2 transmembrane channel; by binding M2 transmembrane channel and blocking proton transport): inhibits influenza activity
